Measured values: ChEMBL document CHEMBL5500378, “Discovery of 4-benzylpiperazinequinoline BChE inhibitor that suppresses neuroinflammation for the treatment of Alzheimer's disease” (Eur J Med Chem, 2024)

Tests used:
Cholinesterase [1] = target: T1, Cholinesterase (Homo sapiens, UniProt P06276); assay: Inhibition of human BChE using BTC as substrate at 10 uM incubated for 2 mins by Ellman's method relative to control
Cholinesterase [2] = target: Cholinesterase (Equus caballus, UniProt P81908); assay: Inhibition of equine serum BChE using BTC as substrate incubated for 2 mins by Ellman's method; type: cell-free
[3] = target: Acetylcholinesterase (Electrophorus electricus) (UniProt O42275); assay: Inhibition of electric eel AChE using ATC as substrate at 10 uM incubated for 2 mins by Ellman's method relative to control
Cholinesterase [4] = target: T1, Cholinesterase; assay: Inhibition of human BChE using BTC as substrate incubated for 2 mins by Ellman's method
Acetylcholinesterase = Acetylcholinesterase (Electrophorus electricus, UniProt O42275); assay: Inhibition of electric eel AChE using ATC as substrate incubated for 2 mins by Ellman's method
[5] = target: Cholinesterase (Equus caballus) (UniProt P81908); assay: Inhibition of equine serum BChE using BTC as substrate at 10 uM incubated for 2 mins by Ellman's method relative to control; type: cell-free
[6] = tested on: Antioxidant response element; assay: Induction of ARE in human HepG2-ARE-C8 cells incubated for 24 hrs by luciferase based assay; type: cell-based; details: HepG2-ARE-C8, 24 h
[7] = Metabolic stability in human liver microsomes assessed as half life at 2 uM incubated for 60 mins by LC-MS/MS analysis; type: ADME, Microsome

Chain of Acetylcholinesterase (Electrophorus electricus) (O42275 24-633 limits assumed): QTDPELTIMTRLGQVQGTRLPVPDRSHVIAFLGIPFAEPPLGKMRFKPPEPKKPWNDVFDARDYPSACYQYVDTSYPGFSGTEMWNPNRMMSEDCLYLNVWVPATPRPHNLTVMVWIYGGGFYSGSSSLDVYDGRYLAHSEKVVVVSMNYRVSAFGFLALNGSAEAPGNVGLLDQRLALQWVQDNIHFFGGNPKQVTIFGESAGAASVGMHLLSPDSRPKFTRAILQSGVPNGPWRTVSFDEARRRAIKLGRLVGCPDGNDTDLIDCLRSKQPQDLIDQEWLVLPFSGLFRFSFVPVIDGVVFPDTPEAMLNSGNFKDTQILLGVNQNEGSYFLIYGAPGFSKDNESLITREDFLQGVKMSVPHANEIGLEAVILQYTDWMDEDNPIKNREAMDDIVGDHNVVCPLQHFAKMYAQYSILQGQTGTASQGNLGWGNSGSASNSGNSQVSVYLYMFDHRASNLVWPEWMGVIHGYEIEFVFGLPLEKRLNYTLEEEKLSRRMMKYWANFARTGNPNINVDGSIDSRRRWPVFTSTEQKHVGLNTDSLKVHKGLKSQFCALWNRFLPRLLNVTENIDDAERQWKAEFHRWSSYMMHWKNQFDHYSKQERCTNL
T1 sequence (P06276 whole entry): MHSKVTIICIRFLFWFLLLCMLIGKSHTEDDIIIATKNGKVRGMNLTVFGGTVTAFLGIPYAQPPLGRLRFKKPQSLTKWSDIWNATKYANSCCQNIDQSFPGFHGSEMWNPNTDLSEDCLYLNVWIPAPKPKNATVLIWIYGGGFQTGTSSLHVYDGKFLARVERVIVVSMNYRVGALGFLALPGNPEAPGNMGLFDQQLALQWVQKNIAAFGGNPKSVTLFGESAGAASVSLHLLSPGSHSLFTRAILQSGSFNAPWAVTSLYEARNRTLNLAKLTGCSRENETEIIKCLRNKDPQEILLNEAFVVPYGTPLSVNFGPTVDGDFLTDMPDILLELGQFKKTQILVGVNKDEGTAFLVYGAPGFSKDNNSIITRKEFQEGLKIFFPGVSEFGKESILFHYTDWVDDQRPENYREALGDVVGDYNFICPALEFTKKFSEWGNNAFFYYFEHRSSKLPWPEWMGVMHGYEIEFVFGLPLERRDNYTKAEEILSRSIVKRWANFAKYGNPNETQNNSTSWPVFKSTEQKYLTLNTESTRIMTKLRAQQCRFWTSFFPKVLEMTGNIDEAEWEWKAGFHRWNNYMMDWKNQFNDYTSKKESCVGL
Chain of Cholinesterase (Equus caballus, UniProt P81908) (P81908 whole entry): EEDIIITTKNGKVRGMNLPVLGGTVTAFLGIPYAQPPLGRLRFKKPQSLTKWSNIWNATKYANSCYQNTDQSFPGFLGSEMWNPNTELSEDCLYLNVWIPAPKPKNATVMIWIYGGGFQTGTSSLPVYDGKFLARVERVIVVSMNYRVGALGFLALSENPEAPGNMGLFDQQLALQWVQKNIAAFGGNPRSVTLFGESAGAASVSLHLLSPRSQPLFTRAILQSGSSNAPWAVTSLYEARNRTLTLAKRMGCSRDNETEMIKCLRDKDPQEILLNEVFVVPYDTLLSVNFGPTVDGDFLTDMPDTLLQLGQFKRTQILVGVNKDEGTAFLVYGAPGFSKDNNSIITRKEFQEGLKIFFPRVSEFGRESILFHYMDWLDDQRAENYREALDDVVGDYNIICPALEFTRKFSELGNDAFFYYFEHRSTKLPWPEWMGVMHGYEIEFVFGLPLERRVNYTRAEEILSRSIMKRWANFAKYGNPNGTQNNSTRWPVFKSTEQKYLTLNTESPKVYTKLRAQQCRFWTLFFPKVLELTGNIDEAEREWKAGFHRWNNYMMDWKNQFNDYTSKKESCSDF
Chain of Acetylcholinesterase (O42275 whole entry): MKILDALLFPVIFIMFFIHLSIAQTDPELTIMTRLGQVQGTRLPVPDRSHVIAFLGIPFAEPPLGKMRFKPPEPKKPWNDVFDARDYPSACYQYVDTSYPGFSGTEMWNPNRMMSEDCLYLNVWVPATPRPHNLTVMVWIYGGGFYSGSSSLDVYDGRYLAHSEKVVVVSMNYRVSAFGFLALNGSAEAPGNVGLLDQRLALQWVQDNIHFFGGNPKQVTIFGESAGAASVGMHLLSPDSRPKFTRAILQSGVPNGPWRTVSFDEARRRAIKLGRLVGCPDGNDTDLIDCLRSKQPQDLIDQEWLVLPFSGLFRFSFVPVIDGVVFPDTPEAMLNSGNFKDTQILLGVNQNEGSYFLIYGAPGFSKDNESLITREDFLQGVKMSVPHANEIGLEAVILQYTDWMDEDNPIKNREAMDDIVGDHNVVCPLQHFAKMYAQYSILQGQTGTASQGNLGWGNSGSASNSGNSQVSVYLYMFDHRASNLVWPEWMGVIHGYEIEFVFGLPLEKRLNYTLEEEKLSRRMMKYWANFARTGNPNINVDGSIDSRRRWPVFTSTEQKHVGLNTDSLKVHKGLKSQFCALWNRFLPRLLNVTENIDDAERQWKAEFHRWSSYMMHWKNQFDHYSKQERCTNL
Chain of Cholinesterase (Equus caballus) (P81908 whole entry): as the sequence (P81908 whole entry) above

Row | Compound | inhibition (Cholinesterase [1]) | IC50 (Cholinesterase [2]) | inhibition [3] | IC50 (Cholinesterase [4]) | IC50 (Acetylcholinesterase) | inhibition [5] | EC50 [6] | half-life at 2 µM [7]
1 | N#Cc1ccc(C(=O)Nc2cnc3ccccc3c2N2CCN(Cc3ccccc3)CC2)cc1 | < 50% | 7.61 µM | < 50% |  |  |  |  | 
2 | Cc1cccc(C(=O)Nc2cnc3ccccc3c2N2CCN(Cc3ccccc3)CC2)n1 | < 50% | 3.32 µM | < 50% |  |  |  |  | 
3 | O=C(CCc1ccccc1)Nc1cnc2ccccc2c1N1CCN(Cc2ccccc2)CC1 |  | 0.44 µM | < 50% | 5.39 µM |  |  |  | 
4 | O=C(Nc1cnc2ccccc2c1N1CCN(Cc2ccccc2)CC1)c1ccc([N+](=O)[O-])c([N+](=O)[O-])c1 | < 50% | 9.04 µM | < 50% |  |  |  |  | 
5 | O=C(Nc1cnc2ccccc2c1N1CCN(Cc2ccccc2)CC1)c1cccc2ccccc12 |  | 0.14 µM | < 50% | 4.13 µM |  |  |  | 
6 | Cc1ccc(C(=O)Nc2cnc3ccccc3c2N2CCN(Cc3ccccc3)CC2)cc1 |  | 0.16 µM | < 50% | 0.77 µM |  |  |  | 
7 | O=C(Nc1cnc2ccccc2c1N1CCN(Cc2ccccc2)CC1)c1cccc([N+](=O)[O-])c1 | < 50% | 1.3 µM | < 50% |  |  |  |  | 
8 | O=C(Nc1cnc2ccccc2c1N1CCN(Cc2ccccc2)CC1)C1CCCC1 | < 50% | 15.1 µM |  |  | 1.34 µM |  |  | 
9 | O=C(Nc1cnc2ccccc2c1N1CCN(Cc2ccccc2)CC1)C1CCCO1 (centres undefined) | < 50% |  | < 50% |  |  | < 50% |  | 
10 | O=C(Nc1cnc2ccccc2c1N1CCN(Cc2ccccc2)CC1)c1ccc(Cl)cc1 |  | 0.4 µM | < 50% | 4.33 µM |  |  |  | 
11 | COc1ccccc1C(=O)Nc1cnc2ccccc2c1N1CCN(Cc2ccccc2)CC1 |  | 0.18 µM | < 50% | 18.4 µM |  |  |  | 
12 | O=C(Nc1cnc2ccccc2c1N1CCN(Cc2ccccc2)CC1)c1ccc2ccccc2c1 |  | 0.6 µM | < 50% | 12 µM |  |  |  | 
13 | CC(C)(C)c1cc(O)ccc1O [E319] |  |  |  |  |  |  | 25.6 µM | 
14 | Cc1ccc(CC(=O)Nc2cnc3ccccc3c2N2CCN(Cc3ccccc3)CC2)cc1 | < 50% | 4.73 µM | < 50% |  |  |  |  | 
15 | CCCCCc1ccc(C(=O)Nc2cnc3ccccc3c2N2CCN(Cc3ccccc3)CC2)cc1 |  | 0.17 µM | < 50% | 1.59 µM |  |  |  | 
16 | Cc1cccc(C(=O)Nc2cnc3ccccc3c2N2CCN(Cc3ccccc3)CC2)c1 | < 50% | 0.36 µM | < 50% |  |  |  |  | 
17 | O=C(Nc1cnc2ccccc2c1N1CCN(Cc2ccccc2)CC1)c1ccc([N+](=O)[O-])cc1 | < 50% | 0.7 µM | < 50% |  |  |  |  | 
18 | O=C(Cc1ccccc1Cl)Nc1cnc2ccccc2c1N1CCN(Cc2ccccc2)CC1 |  | 0.77 µM | < 50% | 1.15 µM |  |  |  | 
19 | O=C(Nc1cnc2ccccc2c1N1CCN(Cc2ccccc2)CC1)c1ccc(Br)cc1 | < 50% | 1.27 µM | < 50% |  |  |  |  | 
20 | O=C(Nc1cnc2ccccc2c1N1CCN(Cc2ccccc2)CC1)C1CCCCC1 | < 50% | 11.9 µM |  |  | 2.02 µM |  |  | 

Row | Compound | inhibition (Cholinesterase [1]) | IC50 (Cholinesterase [2]) | inhibition [3] | IC50 (Cholinesterase [4]) | IC50 (Acetylcholinesterase) | inhibition [5] | EC50 [6] | half-life at 2 µM [7]
21 | O=C(Nc1cnc2ccccc2c1N1CCN(Cc2ccccc2)CC1)c1ccco1 | < 50% | 0.42 µM |  |  | 4.22 µM |  |  | 
22 | O=C(Nc1cnc2ccccc2c1N1CCN(Cc2ccccc2)CC1)c1ccc(F)cc1 | < 50% | 3.31 µM | < 50% |  |  |  |  | 
23 | Cc1ccccc1C(=O)Nc1cnc2ccccc2c1N1CCN(Cc2ccccc2)CC1 |  | 2.24 µM | < 50% | 1.2 µM |  |  |  | 
24 | COc1cccc(C(=O)Nc2cnc3ccccc3c2N2CCN(Cc3ccccc3)CC2)c1 | < 50% | 0.3 µM | < 50% |  |  |  |  | 
25 | CC(C)c1ccc(C(=O)Nc2cnc3ccccc3c2N2CCN(Cc3ccccc3)CC2)cc1 | < 50% | 1.18 µM | < 50% |  |  |  |  | 
26 | O=C(Nc1cnc2ccccc2c1N1CCN(Cc2ccccc2)CC1)c1ccc(Cl)cc1Cl |  | 0.23 µM | < 50% | 2.41 µM |  |  |  | 
27 | CCCCc1ccc(C(=O)Nc2cnc3ccccc3c2N2CCN(Cc3ccccc3)CC2)cc1 |  | 0.13 µM | < 50% | 0.55 µM |  |  |  | 
28 | COc1ccc(C(=O)Nc2cnc3ccccc3c2N2CCN(Cc3ccccc3)CC2)cc1 | < 50% | 0.18 µM | < 50% |  |  |  |  | 
29 | O=C(Nc1cnc2ccccc2c1N1CCN(Cc2ccccc2)CC1)c1ccc(F)cc1F | < 50% | 0.46 µM | < 50% |  |  |  |  | 
30 | CCc1ccc(C(=O)Nc2cnc3ccccc3c2N2CCN(Cc3ccccc3)CC2)cc1 | < 50% | 2.65 µM | < 50% |  |  |  |  | 
31 | O=C(Cc1cccc([N+](=O)[O-])c1)Nc1cnc2ccccc2c1N1CCN(Cc2ccccc2)CC1 | < 50% | 6.27 µM | < 50% |  |  |  |  | 
32 | O=C(Cc1ccc(Cl)cc1)Nc1cnc2ccccc2c1N1CCN(Cc2ccccc2)CC1 | < 50% | 0.96 µM | < 50% |  |  |  |  | 
33 | O=C(Nc1cnc2ccccc2c1N1CCN(Cc2ccccc2)CC1)c1ccccc1Cl |  | 0.18 µM | < 50% | 1.13 µM |  |  |  | 
34 | O=C(Nc1cnc2ccccc2c1N1CCN(Cc2ccccc2)CC1)c1ccccc1 |  | 3.06 µM | < 50% | 1.68 µM |  |  |  | 9.4 min
35 | Cc1ccc(C(=O)Nc2cnc3ccccc3c2N2CCN(Cc3ccccc3)CC2)c(C)c1 |  | 0.4 µM |  | 3.52 µM | 3.77 µM |  |  | 
36 | O=C(Nc1cnc2ccccc2c1N1CCN(Cc2ccccc2)CC1)c1ccccn1 |  | 0.28 µM | < 50% | 2.66 µM |  |  |  | 
37 | Cc1cccc(CC(=O)Nc2cnc3ccccc3c2N2CCN(Cc3ccccc3)CC2)c1 |  | 0.43 µM | < 50% | 10.7 µM |  |  |  | 
38 | O=C(Nc1cnc2ccccc2c1N1CCN(Cc2ccccc2)CC1)c1cccs1 | < 50% | 0.21 µM |  |  | 4.04 µM |  |  | 
39 | O=C(Cc1ccccc1)Nc1cnc2ccccc2c1N1CCN(Cc2ccccc2)CC1 |  | 0.59 µM | < 50% | 9.23 µM |  |  |  | 
40 | O=C(Nc1cnc2ccccc2c1N1CCN(Cc2ccccc2)CC1)c1cccc(Cl)c1 | < 50% | 1.58 µM | < 50% |  |  |  |  | 
